# Like-named read-outs stand apart in the source and are kept apart here.
# Key:
# [1] = Effect of volatile aldehydes on sulfur-based malodor (headspace GC/MS); details: 30 minutes at room temperature, 1 μL aldehyde in 10 mL headspace vial
# Protocol: A 1 μL sample of each volatile aldehyde listed in Table 6 and each Accord (A, B, and C) listed in Tables 1 to 3 is pipeted into individual 10 mL silanized headspace vials. […] Repeat 4 times for each sample (2 for butylamine analysis and 2 for butanethiol analysis). […]
# [2] = Effect of volatile aldehydes on amine-based malodor (headspace GC/MS); details: 1 μL aldehyde in 10 mL headspace vial
# Protocol: A 1 μL sample of each volatile aldehyde listed in Table 6 and each Accord (A, B, and C) listed in Tables 1 to 3 is pipeted into individual 10 mL silanized headspace vials. […] Repeat 4 times for each sample (2 for butylamine analysis and 2 for butanethiol analysis).
# For amine analysis, the samples are injected immediately into the system after the malodor is introduced.
# [3] = acid catalysts, as reported by Scifinder; cited from earlier work
# Vapor pressure at 25° C. = format: physicochemical
# Protocol: Suitable acid catalysts have a VP, as reported by Scifinder, in the range of about 0.001 torr to about 38 torr, measured at 25° C., alternatively about 0.001 torr to about 14 torr, alternatively from about 0.001 to about 1, alternatively from about 0.001 to about 0.020, alternatively about 0.005 to about 0.020, alternatively about 0.010 to about 0.020.
Compound,At least 20% butanethiol reduction at 30 minutes? [1],At least 20% butylamine reduction at 40 seconds? [2],VP (torr) @25° C. [3],"VP (torr) @25° C. (Vapor pressure at 25° C.; Table 2, materials of Accord B)","VP (torr) @25° C. (Vapor pressure at 25° C.; Table 3, materials of Accord C)","VP (torr) @25° C. (Vapor pressure at 25° C.; Table 1, materials of Accord A)"
"3,4-Trimethoxy-benzylaldehyde",No,No,,,,
"COc1cc(OC)c(OC)cc1C=O [2,4,5 Trimethoxy Benzaldehyde]",No,No,,,,
"COc1cc(OC)c(C=O)c(OC)c1 [2,4,6-Trimethoxy-benzylaldehyde]",No,No,,,,
CCOc1ccccc1C=O [2-ethoxy benzylaldehyde],Yes,Yes,,,,
CC(C)CC=C(C=O)C(C)C [2-isopropyl-5-methyl-2-hexenal],Yes,Yes,,,,
CC(C=O)=Cc1ccco1 [2-methyl-3-(2-furyl)-propenal],No,No,,,,
"COc1cc(C=O)cc(OC)c1OC [3,4,5 Trimethoxy Benzaldehyde]",No,No,,,,
CC(C)(C)c1ccc(C=O)cc1 [4-tertbutyl benzylaldehyde],No,Yes,,,,
Cc1ccc(C(=O)O)s1 [5-Methyl thiophene carboxylic acid],,,0.019 torr,,,
Cc1ccc(C=O)o1 [5-methyl furfural],Yes,Yes,,,,
Cc1ccc(C=O)s1 [5-methyl-thiophene-carboxaldehyde],Yes,No,,,,
CC(=O)O [Acetic Acid],,,13.9 torr,,,
"CC(C)=CCCC(C)CCCC(C)C=O (centres unmarked) [Adoxal, 2,6,10-Trimethyl-9-undecenal]",No,Yes,,0.007 torr,0.007 torr,
"CCCCCC(C=O)=Cc1ccccc1 [Amyl cinnamic aldehyde, alpha-Amylcinnamic aldehyde]",No,No,,,,
O=C(O)c1ccccc1 [Benzoic acid],,,0.014 torr,,,
O=Cc1ccccc1 [Benzylaldehyde],No,Yes,,,,
"CC(C)(C)c1ccc(CCC=O)cc1 [Bourgeonal, 4-t-butylbenzenepropionaldehyde]",Yes,No,,,0.004 torr,
CCCCCCCC(=O)O [Caprylic acid],,,0.0222 torr,,,
"O=CC=Cc1ccccc1 [Cinnamic aldehyde, 3-phenyl-2-propenal]",Yes,Yes,,,,
"CC(C)=CCCC(C)CCOCC=O (centres unmarked) [Citronelyl Oxyacetaldehyde, Citronellyl oxyacetaldehyde]",No,No,,,,
"CC(C=O)Cc1ccc(C(C)C)cc1 (stereo not drawn) [Cymal, Alpha-methyl-p-isopropyl phenyl propyl aldehyde]",No,Yes,,0.007 torr,0.007 torr,0.007 torr
CCCCCCCCCC=O [Decyl aldehyde],No,Yes,,,,
CC(=O)OC1CC2CC1C1CC=CC21 (centres unmarked) [Flor Acetate],,,,,0.060 torr,
C=CC(C)CCC=C(C)CCC=O (centres unmarked) [Floral Super],Yes,Yes,,0.030 torr,0.030 torr,0.030 torr
"CCc1ccc(CC(C)(C)C=O)cc1 [Floralozone, para-ethyl-alpha,alpha-dimethyl Hydrocinnamaldehyde]",No,No,,0.005 torr,0.005 torr,
"CC(C)c1cccc(C(C)CC=O)c1 (centres unmarked) [Florhydral, 3-(3-Isopropyl-phenyl)-butyraldehyde]",Yes,Yes,,0.008 torr,0.008 torr,0.008 torr

Compound,At least 20% butanethiol reduction at 30 minutes? [1],At least 20% butylamine reduction at 40 seconds? [2],VP (torr) @25° C. [3],"VP (torr) @25° C. (Vapor pressure at 25° C.; Table 2, materials of Accord B)","VP (torr) @25° C. (Vapor pressure at 25° C.; Table 3, materials of Accord C)","VP (torr) @25° C. (Vapor pressure at 25° C.; Table 1, materials of Accord A)"
O=CO [Formic Acid],,,36.5 torr,,,
CCC(=O)OC1CC2CC1C1CC=CC21 (centres unmarked) [Frutene],,,,,0.020 torr,
"CC(C=O)Cc1ccc2c(c1)OCO2 (stereo not drawn) [Helional, alpha-methyl-3,4-(methylenedioxy)-hydrocinnamaldehyde]",No,Yes,,,0.0005 torr,
"CC(CC=O)CCCC(C)(C)O (centres unmarked) [Hydroxycitronellal, 7-hydroxy-3,7-dimethyl octan-1-al]",No,No,,,,
"C=CCCCCCCCCC=O [Intreleven Aldehyde, undec-10-en-1-al]",,,,0.060 torr,0.060 torr,0.060 torr
CCCCCCCCCCCC=O [Lauric aldehyde],No,Yes,,,,
"CC1=CC(C)C(C=O)CC1 (centres unmarked) [Ligustral, 2,4-dimethyl-3-cyclohexene-1-carboxaldehyde]",No,Yes,,,,
C=CC(C)(O)CCC=C(C)C (centres unmarked) [Linalool],,,,,0.050 torr,
"CC(C)(O)CCCC1=CCC(C=O)CC1 (centres unmarked) [Lyral, 4-(4-hydroxy-4-methylpentyl)-3-cyclohexene-1-carboxaldehyde]",No,Yes,,,,
"CC(C)=CCCC(C)C=O (centres unmarked) [Melonal, 2,6-Dimethyl-5-Heptenal]",No,Yes,,0.670 torr,0.670 torr,
Cc1cc(C)cc(C(=O)O)c1 [Mesitylenic acid],,,0.00211 torr,,,
"CCCCCCCCCC(C)C=O (centres unmarked) [Methyl Nonyl Acetaldehyde, 2-methyl-1-undecanal]",No,No,,0.030 torr,0.030 torr,
"CC(C=O)Cc1ccc(C(C)(C)C)cc1 (stereo not drawn) [P.T. Bucinal, 4-tert-butyl-alpha-methyl-hydrocinnamaldehyde]",No,Yes,,,,
Oc1ccccc1 [Phenol],,,0.610 torr,,,
CC1(C)C2CC=C(CCC=O)C1C2 (centres unmarked) [Pino acetaldehyde],Yes,Yes,,,,
"COC1CC2CC1C1CC(C=O)CC21 (centres unmarked) [Scentenal, octahydro-5-methoxy-4,7-Methano-1H-indene-2-carboxaldehyde]",,,,0.010 torr,0.010 torr,0.010 torr
O=C(O)CCC(=O)O [Succinic acid],,,0.0165 torr,,,
O=Cc1cccs1 [Thiophene Carboxaldehyde],No,Yes,,,,
C/C=C(\C)C(=O)O [Tiglic acid],,,0.152 torr,,,
"CCCC/C=C/C=C/C=O [Trans Trans 2,4-Nonadienal]",No,Yes,,,,
CCCCC/C=C/CCC=O [Trans-4-decenal],Yes,Yes,,,,
CC(C)(C)C(=O)O [Trimethyl Acetic Acid],,,0.907 torr,,,
CCCCCCCCCCC=O [Undecyl aldehyde],No,Yes,,,,
COc1ccccc1C=O [o-anisaldehyde],Yes,Yes,,0.032 torr,0.320 torr,0.032 torr
"COc1ccc(C=O)cc1 [p-anisaldehyde, p-methoxybenzene aldehyde]",No,Yes,,,,
